Marks after values point to notes of the source that are not given here.
Experiments:
SOD1-G93A mice [1] = experiment: Onset time and survival time of SOD1-G93A mice (Example 1); assay type: in vivo; conditions: for Survival Time Extension: i.p. once a day from age 70 d, versus SOD1-G93A control; for Onset Time / Survival Time: i.p. once a day from age 70 d until death
Text: The transgenic mice (B6SJL-TgN[SOD1-G93A] 1Gur) carrying humanized copper/zinc superoxide dismutase (SOD1) (G93A mutants) and wild-type B6SJL F1 mice are purchased from Nanjing University. The breed conversation and propagation methods of the mice: one wild-type female mouse and one transgenic male mouse are allowed to mate with each other, with their progeny identified through polymerase chain reaction (PCR) with DNA extracted from the tail of young mice.
5 B6SJL-TgN(SOD1-G93A)1Gur male mice were allowed to mate with B6SJLF1 female healthy mice in a ratio of 1 male to 3 females beginning at the age of 60 d. DNA was extracted from the progeny mice tail-cutting (as required in the kits), plus SOD1 primers 5′ -[…]-3 ′ and 5 ′ -[…] AAGTGA-3 ′ were amplified through 30 PCR cycles, confirming SOD1 gene strips between 200˜300bp. Mice without SOD1 mutant gene were eliminated.
(§1) Calculated based on the effective doses of edaravone (SOD1-G93Amousel5 mg/kg, SOD1-H46R rat 3-6mg/kg) and those on cerebral ischemic animal models (SD rat 6 mg/kg) according to the literature, the dosage of edaravone was set at 12 mg/kg, then the dosage of the composition of edaravone and borneol was set at 15 mg/kg (the dosage of edaravone was set at 12 mg/kg, borneol was 3 mg/kg), and borneol was set at 3 mg/kg.
SOD1 genetic mutant mice at the age of 70 d were divided randomly into 4 groups according to their motor functions. Respectively: the SOD1 genetic mutation control group; the treating group of the composition of edaravone and borneol at 15 mg/kg; the treating group of edaravone at 12 mg/kg; the treating group of borneol at 3 mg/kg; another B6SJL healthy mice control group without SOD lgenetic mutation was additionally set. There was 14 mice each group, half of males and half of females.
From the day of grouping, animals in each group were dosed by intraperitoneal injection once a day, until death. Animals in the healthy control group and the SOD1 genetic mutation control group were given saline of equal volumes.
It was determined as muscle strength decline when the time of the mice keeping on the rotarod decreased by over 30% compared with the former time determined. The onset time of the mice was determined according to the variation of this motor function and the observation of the anterior limbs of the mice with or without tremor. When the mice have lain on their backs on smooth planes for 30 s and cannot righting reflex, or there was serious infection in one or both eyes, then the mice may be judged as death and sacrificed. The time from birth to death of a mouse was the survival time of the mouse.
It was assessed whether there was a synergistic effect between edaravone and borneol in the composition according to the Jong-eun's formula, q=E(a+b)/(Ea+Eb−Ea×Eb). In the formula, E(a+b) is the effective rate of the combined drugs, Ea, Eb is the effective rate of A drug, B drug used alone, respectively. If q value was in the range of 0.85˜1.15, indicating the sum of the combined two drugs; q value >1.15 indicating enhancement, and q value <0.85 indicating there was an antagonistic effect when two drugs were used together.

SOD1-G93A mice [2] = experiment: Rota-rod motor function of SOD1-G93A mice (Example 1); assay type: in vivo; conditions: p<0.05, FIG. 1
Experimental: According to the methods reported in literatures, mice were placed on the Rota-rod (60 Hz/min, Φ190 mm), and the time from being placed on the Rota-rod to dropping was recorded. Each mouse was determined for 3 times at each time point, with the longest time of mouse keeping on the rotating rod reflecting the motor function of the mouse, the determination was stopped if the time was over 180s, calculated as 180s. The motor functions of the mice with SOD1 mutant gene were determined beginning at the age of 60 d. Thereafter, they were observed and determined every 10 days, until death.
as §1
SOD1 genetic mutant mice at the age of 70 d were divided randomly into 4 groups according to their motor functions. […]

SOD1-G93A mice [3] = experiment: Passive avoidance test of learning and memory in SOD1-G93A mice (Example 2); assay type: in vivo; conditions: memory experiment; for Latency period after entering the dark room versus model group: age about 90 d, FIG. 2; for Number of step-through errors versus model group: FIG. 3
Text: The transgenic mice (B6SJL-TgN[SOD1-G93A] 1Gur) carrying humanized copper/zinc superoxide dismutase (SOD1) (G93A mutants)and wild-type B6SJL F1 mice are purchased from Nanjing University. The breed conversation and propagation methods of the mice: one wild-type female mouse and one transgenic male mouse were allowed to mate with each other, with their progeny identified through polymerase chain reaction (PCR) with DNA extracted from the tail of young mice.
Calculated based on the effective doses of edaravone (SOD1-G93Amouse 15 mg/kg, SOD1-H46R rat 3-6 mg/kg) and those on cerebral ischemic animal models (SD rat 6 mg/kg) according to the literature, the dosage of edaravone was set at 12 mg/kg, then the dosage of the composition of edaravone and borneol was set at 15 mg/kg (the dosage of edaravone was set at 12 mg/kg, borneol was 3 mg/kg), and borneol was set at 3 mg/kg.
SOD1 genetic mutant mice at the age of 70 d were divided randomly into 4 groups according to their motor functions. Respectively: the SOD1 genetic mutation control group; the treating group of the composition of edaravone and borneol at 15 mg/kg; the treating group of edaravone at 12 mg/kg; the treating group of borneol at 3 mg/kg; another B6SJL healthy mice control group without SOD1 genetic mutation was additionally set. There was 14 mice each group, half of males and half of females.
From the day of grouping, animals in each group were dosed by intraperitoneal injection once a day, until the behavior test has been completed. Animals in the healthy control group and the SOD1 genetic mutation control group were given saline of equal volumes.
The passive avoidance test was performed when the animals were at the age of about 90 d to determine their abilities of learning and memory. The experimental device was divided into two rooms, bright and dark. […] The mice were placed into the bright room with face back to the hole in the test, the timer was initiated at the same time, and the animals entered the dark room through passing the hole, subjecting to the electric shock (0.19 mA), the recorded time was the latency period, meanwhile recording the number of step-through errors in 5 min after the mice got into the dark room. The memory experiment was carried out on the third day, the time from placing each mouse into the bright room to entering the dark room was recorded, if the mouse didn't enter the dark room in 5 min, then the latency period was recorded as 300s, meanwhile recording the number of step-through errors in 5 min after the mice got into the dark room.
It was assessed whether there was a synergistic effect between edaravone and borneol in the composition according to the Jong-eun's formula, q=E(a+b)/(Ea+Eb−Ea×Eb). […]

SOD1-G93A mice [4] = experiment: Onset time and survival time of SOD1-G93A mice (Example 3); assay type: in vivo
Experimental: The transgenic mice with amyotrophic lateral sclerosis (B 6 SJL-Tg(SOD1*G93A)1Gur/JNj u, hereinafter referred to as SOD1-G93 A mice) and the wild-type control mice were purchased from Nanjing Biomedical Research Institute of Nanjing University.
Dosing to animals was initiated from the age of 10 weeks, keeping on the whole survival period. Each dosage of the composition and the positive drug edaravone group was dosed by intraperitoneal injection once a day. […] Animals in the wild control group and the model group were given the corresponding volumes of solvents by intraperitoneal injection.
From the age of 10 weeks, the body weight, the motor function (motor ability score, rotarod test) of animals had been monitored once a week. Two consecutive rod droppings in the animal rotarod test had been considered as the sign of the onset of animal diseases. It was defined as the end of a disease to euthanasia when the animal cannot get righting in 30 seconds after being laid on one side.
The body weight, the motor ability score, the variation of the rod drop latency period with the time in the rotarod test, the onset time, and the survival time were considered as the indexes of observing the disease progress.

SOD1-G93A mice [5] = experiment: Motor function scores of SOD1-G93A mice (Example 3); assay type: in vivo; conditions: p<0.05, FIG. 5
SOD1-G93A mice [6] = experiment: Rotarod test drop time of SOD1-G93A mice (Example 3); assay type: in vivo; conditions: p<0.05, FIG. 6
mutant SOD1 G93A mice = conditions: cited from earlier work
[7] = tested on: amyotrophic lateral sclerosis; conditions: clinical phase-III study NCT00330681; primary endpoint not reached; cited from earlier work
SOD1-H46R rat = conditions: according to the literature; cited from earlier work
[8] = tested on: cerebral ischemic animal models; conditions: SD rat, according to the literature; cited from earlier work
SOD1-G93A mice [9] = experiment: Body weight of SOD1-G93A mice (Example 3); assay type: in vivo; conditions: 100 μg/ml in drinking water; age 21 weeks; p<0.05; FIG. 4
[10] = 15 mg/kg/d i.p. once a day from age 10 weeks, mean ± standard error
[11] = 100 μg/ml in drinking water, age 16-21 weeks

## CC1(C)C2CCC1(C)C(O)C2 (stereo not shown) [Borneol, 2-camphol]
SOD1-G93A mice [1]; 3 mg/kg/d i.p. from age 70 d
  Effect on the survival time versus model group: no statistical difference compared with the model group
SOD1-G93A mice [1]; 3 mg/kg/d
  Survival Time Extension: 2.9 days
  Onset Time: 113.1 ± 2.5 days
  Survival Time: 141.3 ± 3.6 days
SOD1-G93A mice [1]; 3 mg/kg/d, listed as borneol
  Survival Time: 141.3 ± 3.6 days
SOD1-G93A mice [2]; 3 mg/kg/d i.p., only at age 130 d
  Rotarod time versus model group: different significantly from the model group
SOD1-G93A mice [3]; 3 mg/kg/d i.p. from 70 d
  Latency period after entering the dark room versus model group: not obvious
SOD1-G93A mice [3]; 3 mg/kg/d i.p.
  Number of step-through errors versus model group: not obvious

## CC1=NN(c2ccccc2)C(=O)C1 [Edaravone, 3-methyl-1-phenyl-2-pyrazolin-5-one]
SOD1-G93A mice [1]; 12 mg/kg/d i.p. from age 70 d
  Effect on the survival time versus model group: extending the survival time of the mice significantly
  Influence on the onset time of the mice: no influence on the onset time
SOD1-G93A mice [1]; 12 mg/kg/d
  Survival Time Extension: 6.2 days
  Onset Time: 113.7 ± 2.6 days
  Survival Time: 144.6 ± 3.7 days
SOD1-G93A mice [1]; 12 mg/kg/d, listed as edaravone
  Survival Time: 144.6 ± 3.7 days
SOD1-G93A mice [2]; 12 mg/kg/d i.p., age 110, 120, 130 d
  Rotarod time (muscle strength, motor function) versus model control group: significantly slow the decline of the muscle strength
SOD1-G93A mice [3]; 12 mg/kg/d i.p. from 70 d, p<0.05
  Latency period after entering the dark room versus model group: extended significantly
SOD1-G93A mice [3]; 12 mg/kg/d i.p., p<0.05
  Number of step-through errors versus model group: decreased significantly
SOD1-G93A mice [4]; [10]
  Onset Time: 111.3 ± 10.0 days
  Survival Time: 151.7 ± 9.7* d
SOD1-G93A mice [4]; 15 mg/kg/d i.p., versus SOD1-G93A control
  Survival Time Extension: 9.4 days
SOD1-G93A mice [5]; 15 mg/kg/d i.p., age 17, 20, 21 weeks
  Motor function scores versus model group: significantly higher than in the model group
SOD1-G93A mice [6]; 15 mg/kg/d i.p., age 16, 19, 20, 21 weeks
  Drop time in the rotarod test versus model group: markedly longer than in the model group
Mutant SOD1 G93A mice; Exp Neurol. 2008, 213(2):448-55
  Progression of the symptoms and degeneration of neuron: capable of slowing the progression of the symptoms
Mutant SOD1 G93A mice; SOD1-G93A mouse, according to the literature
  Effective dose: 15 mg/kg
[7]
  ALSFRS-R score versus placebo group: decreased less than the placebo group, there was no significant difference
SOD1-H46R rat
  Effective dose: 3 to 6 mg/kg
[8]
  Effective dose: 6 mg/kg

## Nc1nc2ccc(OC(F)(F)F)cc2s1 [Riluzole]
SOD1-G93A mice [4]; 100 μg/ml in drinking water from age 10 weeks, mean ± standard error
  Onset Time: 109.2 ± 9.4 days
SOD1-G93A mice [9]
  Weight of animals versus model control group: significantly higher than in the model control group
SOD1-G93A mice [5]; [11]
  Motor function scores versus model group: significantly higher than in the model group
SOD1-G93A mice [6]; [11]
  Drop time in the rotarod test versus model group: longer than in the model group markedly

Reference: patent US10206905B2, “Use of composition for preparing a medicament for treatment of amyotrophic lateral sclerosis” (priority 2015, dated 2019)
